“And” between values parts separate entries of the source, which are not always exact repeats. Equal entries are not always repeated. Toxic doses and inconclusive results are not listed. The calls were made as follows: active = survival T/C of 150% or more; inactive = T/C below 125% in these data.
System: P388 leukemia ip, CD2F1 mice, survival T/C
Assay: NCI In Vivo Anticancer Drug Screen. Data for tumor model P388 Leukemia (intraperitoneal) in CD2F1 (CDF1) mice
Details: endpoint: median survival time, higher = longer survival
How it was run: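 Mice carrying the transplanted tumor received test compound or vehicle. Survival was recorded in each group, and the value is the treated-group measurement divided by that of the vehicle-treated control group.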

[1] = dose: 50.0 mg/kg/injection, schedule: Q01DX009 (ip), vehicle: saline
[2] = dose: 100.0 mg/kg/injection, schedule: Q01DX009 (ip), vehicle: saline
[3] = dose: 200.0 mg/kg/injection, schedule: Q01DX009 (ip), vehicle: saline
[4] = dose: 50.0 mg/kg/injection, schedule: Q01DX005 (ip), vehicle: saline with Tween-80
[5] = dose: 100.0 mg/kg/injection, schedule: Q01DX005 (ip), vehicle: saline with Tween-80
[6] = dose: 200.0 mg/kg/injection, schedule: Q01DX005 (ip), vehicle: saline with Tween-80
[7] = dose: 6.25 mg/kg/injection, schedule: Q01DX005 (ip), vehicle: Klucel (hydroxypropylcellulose) (HPC)
[8] = dose: 100.0 mg/kg/injection, schedule: Q04DX003 (ip), vehicle: saline with Tween-80
[9] = dose: 200.0 mg/kg/injection, schedule: Q04DX003 (ip), vehicle: saline with Tween-80
[10] = dose: 50.0 mg/kg/injection, schedule: Q01DX005 (ip), vehicle: Klucel (hydroxypropylcellulose) (HPC)
[11] = dose: 100.0 mg/kg/injection, schedule: Q01DX005 (ip), vehicle: Klucel (hydroxypropylcellulose) (HPC)

Measured: T/C

S=C(Nc1cc(Cl)cc(Cl)c1)SCc1ccccc1
inactive: [1] 100 % of control | [2] 99 % of control | [3] 107 % of control

CC1(C)CN(Cc2ccccc2)CCOC1N1CCOCC1 (centres undefined)
inactive: [4] 93 % of control | [5] 101 % of control | [6] 115 % of control

CC(C)COC(=O)N1c2ccccc2C=CC1OCC(C)C (centres undefined)
inactive: dose: 1.56 mg/kg/injection, schedule: Q01DX005 (ip), vehicle: Klucel (hydroxypropylcellulose) (HPC) 104 % of control | dose: 3.12 mg/kg/injection, schedule: Q01DX005 (ip), vehicle: Klucel (hydroxypropylcellulose) (HPC) 100 % of control | [7] 104 % of control | dose: 6.25 mg/kg/injection, schedule: Q01DX005 (ip), vehicle: saline with Tween-80 109 % of control | dose: 12.5 mg/kg/injection, schedule: Q01DX005 (ip), vehicle: saline with Tween-80 112 % of control

Cc1ccc(S(=O)(=O)OCC(COS(=O)(=O)c2ccc(C)cc2)C(C)(C)C)cc1
inactive: [4] 101 % of control | [5] 104 % of control | [6] 107 % of control

c1ccc(-c2nn(-c3ccccc3)[n+](-c3ccccc3-c3ccccc3)n2)cc1
inactive: dose: 5.0 mg/kg/injection, schedule: Q01DX009 (ip), vehicle: saline 109 % of control and 114 % of control | dose: 10.0 mg/kg/injection, schedule: Q01DX009 (ip), vehicle: saline 120 % of control | dose: 20.0 mg/kg/injection, schedule: Q01DX009 (ip), vehicle: saline 121 % of control

CCCCNC(=O)ON1C(=O)c2ccccc2C1=O
inactive: dose: 1.56 mg/kg/injection, schedule: Q01DX009 (ip), vehicle: saline with Tween-80 105 % of control | dose: 3.12 mg/kg/injection, schedule: Q01DX009 (ip), vehicle: saline with Tween-80 105 % of control | dose: 6.25 mg/kg/injection, schedule: Q01DX009 (ip), vehicle: saline with Tween-80 102 % of control and 117 % of control | dose: 12.5 mg/kg/injection, schedule: Q01DX009 (ip), vehicle: saline with Tween-80 110 % of control and 113 % of control | dose: 25.0 mg/kg/injection, schedule: Q01DX009 (ip), vehicle: saline with Tween-80 119 % of control

Nc1cccc2c1C(=O)c1cccc(Cl)c1C2=O
inactive: [8] 104 % of control | [9] 104 % of control | dose: 400.0 mg/kg/injection, schedule: Q04DX003 (ip), vehicle: saline with Tween-80 100 % of control

CCC1(CC)C(=O)NC(=O)[N]([Sn]([CH3])([CH3])[N]2C(=O)NC(=O)C(CC)(CC)C2=O)C1=O
inactive: [10] 112 % of control | [11] 111 % of control

CN(C)C=Nc1ccccc1
inactive: [1] 103 % of control | [2] 103 % of control | [3] 108 % of control

COC1OCN(C2CCCCC2)CC1(C)C (centres undefined)
inactive: dose: 17.5 mg/kg/injection, schedule: Q01DX009 (ip), vehicle: saline with Tween-80 100 % of control | dose: 35.0 mg/kg/injection, schedule: Q01DX009 (ip), vehicle: saline with Tween-80 104 % of control | dose: 70.0 mg/kg/injection, schedule: Q01DX009 (ip), vehicle: saline with Tween-80 117 % of control

COC(=O)CS(=O)(=O)CCCS(=O)(=O)CC(=O)OC
inactive: [1] 105 % of control | [2] 99 % of control | [3] 103 % of control

O=C(Nc1nc2ccccc2s1)Nc1ccc([N+](=O)[O-])cc1Cl
inactive: [10] 98 % of control | [11] 94 % of control | dose: 200.0 mg/kg/injection, schedule: Q01DX005 (ip), vehicle: Klucel (hydroxypropylcellulose) (HPC) 90 % of control

CC1C2c3ccccc3C(c3ccccc32)C1CN1C(CCO)COC1c1ccccc1 (centres undefined)
inactive: dose: 60.0 mg/kg/injection, schedule: Q01DX005 (ip), vehicle: saline with Tween-80 92 % of control | dose: 120.0 mg/kg/injection, schedule: Q01DX005 (ip), vehicle: saline with Tween-80 87 % of control | dose: 240.0 mg/kg/injection, schedule: Q01DX005 (ip), vehicle: saline with Tween-80 90 % of control

S=C(Oc1ccccc1)SSC(=S)Oc1ccccc1
inactive: dose: 25.0 mg/kg/injection, schedule: Q04DX003 (ip), vehicle: saline with Tween-80 114 % of control | dose: 50.0 mg/kg/injection, schedule: Q04DX003 (ip), vehicle: saline with Tween-80 104 % of control | dose: 100.0 mg/kg/injection, schedule: Q04DX003 (ip), vehicle: DMSO 90 % of control | [8] 96 % of control | [9] 107 % of control

C=CC(=NC(C)(C)C)Nc1cccc(Cl)c1
inactive: dose: 6.25 mg/kg/injection, schedule: Q04DX003 (ip), vehicle: saline 98 % of control | dose: 12.5 mg/kg/injection, schedule: Q04DX003 (ip), vehicle: saline 102 % of control | dose: 25.0 mg/kg/injection, schedule: Q04DX003 (ip), vehicle: saline 100 % of control

Cc1c(C#N)c(N)nc2c(C(N)=O)nsc12
inactive: [7] 98 % of control | dose: 12.5 mg/kg/injection, schedule: Q01DX005 (ip), vehicle: Klucel (hydroxypropylcellulose) (HPC) 102 % of control | dose: 25.0 mg/kg/injection, schedule: Q01DX005 (ip), vehicle: Klucel (hydroxypropylcellulose) (HPC) 95 % of control | [10] 91 % of control

CCOC(=O)c1c(C2OC(CO)C(O)C2O)cn(C)c1-c1ccccc1 (centres undefined)
inactive: dose: 50.0 mg/kg/injection, schedule: Q01DX001 (ip), vehicle: Klucel (hydroxypropylcellulose) (HPC) 103 % of control | dose: 100.0 mg/kg/injection, schedule: Q01DX001 (ip), vehicle: Klucel (hydroxypropylcellulose) (HPC) 98 % of control | dose: 200.0 mg/kg/injection, schedule: Q01DX001 (ip), vehicle: Klucel (hydroxypropylcellulose) (HPC) 98 % of control

O=[N+]([O-])c1cc2c(cc1I)C1C(C3C2C2(Cl)C(Cl)=C(Cl)C3(Cl)C2(Cl)Cl)C2(Cl)C(Cl)=C(Cl)C1(Cl)C2(Cl)Cl (centres undefined)
inactive: [1] 108 % of control | [2] 106 % of control | [3] 106 % of control

C/C(CCl)=N\NC1=NC2(CCCCC2)P(=O)(NNc2ncccn2)S1 (centres undefined)
inactive: dose: 37.5 mg/kg/injection, schedule: Q01DX005 (ip), vehicle: Klucel (hydroxypropylcellulose) (HPC) 103 % of control | dose: 60.0 mg/kg/injection, schedule: Q01DX005 (ip), vehicle: Klucel (hydroxypropylcellulose) (HPC) 102 % of control | dose: 75.0 mg/kg/injection, schedule: Q01DX005 (ip), vehicle: Klucel (hydroxypropylcellulose) (HPC) 102 % of control | dose: 120.0 mg/kg/injection, schedule: Q01DX005 (ip), vehicle: Klucel (hydroxypropylcellulose) (HPC) 100 % of control

Fc1ccc(NC(=S)SCc2ccc(Cl)cc2)c(F)c1
inactive: dose: 50.0 mg/kg/injection, schedule: Q01DX009 (ip), vehicle: suspension in saline 93 % of control | dose: 100.0 mg/kg/injection, schedule: Q01DX009 (ip), vehicle: suspension in saline 100 % of control | dose: 200.0 mg/kg/injection, schedule: Q01DX009 (ip), vehicle: suspension in saline 100 % of control

C=C1C(=O)O[C@H]2[C@@H]3O[C@@H]3C[C@@H]12
inactive: dose: 1.56 mg/kg/injection, schedule: Q01DX009 (ip), vehicle: water 105 % of control | dose: 3.13 mg/kg/injection, schedule: Q01DX009 (ip), vehicle: water 97 % of control | dose: 6.25 mg/kg/injection, schedule: Q01DX009 (ip), vehicle: water 99 % of control | dose: 12.5 mg/kg/injection, schedule: Q01DX009 (ip), vehicle: water 100 % of control | dose: 25.0 mg/kg/injection, schedule: Q01DX009 (ip), vehicle: water 109 % of control

COc1ccc(C(O)(CCN2CCOCC2)c2ccc3c(c2)OCO3)cc1 (centres undefined)
inactive: [10] 90 % of control | [11] 91 % of control

COc1ccc2c(c1)CCC(Cc1ccc(Cl)cc1)C2c1ccc(OCCN2CCCC2)cc1 (centres undefined)
inactive: dose: 6.25 mg/kg/injection, schedule: Q01DX005 (ip), vehicle: suspension in saline 100 % of control | dose: 12.5 mg/kg/injection, schedule: Q01DX005 (ip), vehicle: suspension in saline 98 % of control | dose: 25.0 mg/kg/injection, schedule: Q01DX005 (ip), vehicle: suspension in saline 98 % of control | dose: 50.0 mg/kg/injection, schedule: Q01DX005 (ip), vehicle: suspension in saline 100 % of control

ClCC(Br)CBr (centres undefined)
inactive: dose: 37.5 mg/kg/injection, schedule: Q01DX009 (ip), vehicle: saline with Tween-80 104 % of control | dose: 37.5 mg/kg/injection, schedule: Q04DX003 (ip), vehicle: saline with Tween-80 100 % of control | dose: 50.0 mg/kg/injection, schedule: Q01DX009 (ip), vehicle: saline sonified 105 % of control | dose: 75.0 mg/kg/injection, schedule: Q04DX003 (ip), vehicle: saline with Tween-80 90 % of control | dose: 150.0 mg/kg/injection, schedule: Q01DX009 (ip), vehicle: saline with Tween-80 104 % of control | dose: 150.0 mg/kg/injection, schedule: Q04DX003 (ip), vehicle: saline with Tween-80 95 % of control

Reference: PubChem BioAssay AID330 (DTP/NCI, 2004)
